Test results published in PMC3605511, “Tumor P-Glycoprotein Correlates with Efficacy of PF-3758309 in in vitro and in vivo Models of Colorectal Cancer” (Frontiers in Pharmacology, 2013).

Columns and labels:
[1] = test system: SW48; test: Cell proliferation assay, SW48; format: cell-based; conditions: Homo sapiens; SW48, 72 h, SRB assay
Method: (§1) Cytotoxic/proliferation effects were determined using the sulforhodamine B (SRB) assay (Skehan et al., [1990]) or by resazurin. Briefly, cells in logarithmic growth phase were transferred to 96 well flat bottom plates with lids. One-hundred microliter cell suspensions containing 1500–5000 viable cells were plated into each well and incubated overnight prior to exposure with increasing concentrations of PF-309 for 3–5 days, dependent upon cell type. Media was removed and cells were fixed with cold 10% trichloroacetic acid for 30 min at 4°C. Cells were then washed with water and stained with 0.4% SRB (Fisher Sci., Pittsburgh, PA, USA) for 30 min at room temperature, washed again with 1% acetic acid, followed by stain solubilization with 10 mM tris at room temperature. The plate was then read on a plate reader (Biotek Synergy 2, Winooski, VT, USA) set at an absorbance wavelength of 565 nm. Cell proliferation curves were derived from the raw absorbance (OD) data.
Since PF-309 appeared to be a strong P-gp and BCRP substrates, we sought to evaluate if the transporters influenced sensitivity in vitro. We evaluated the sensitivity of CRC cell lines to PF-309 treatment in a panel of 27 lines. Cells were exposed to PF-309 at a range of concentrations for 72 h and cell content measured by SRB assay (see Pitts et al., [2013]). […]

[2] = test system: DLD1 PgP_KD2; test: Proliferation after shRNA knockdown of P-gp, DLD1 PgP_KD2; format: cell-based; conditions: Homo sapiens, DLD-1; DLD1 PgP_KD2 :50, P-gp shRNA knockdown
Method: as §1
The pGIPZ Pgp-specific shRNA expression cassettes, along with control shRNA plasmids including the original pGIPZ vector were purchased from Open Biosystems (Birmingham, AL, USA). […] Successful knockdown of specific genes and gene products was confirmed by semi-quantitative RT-PCR and immunoblotting with specific antibodies. […]

[3] = test system: CUCRC026 CRC PDTX model; test: Patient derived tumor xenograft efficacy, CUCRC026; format: in vivo, mice; conditions: 25 mg/kg orally twice daily, 22–56 days, end of study tumor volumes
Method: (§2) For patient tumor xenografts, surgical specimens of patients undergoing either removal of a primary or metastatic tumor at the University of Colorado Hospital are implanted subcutaneously into five mice for each patient with a 10-G trochar. After a subsequent growth and passage in mice, tumors are excised, and expanded into cohorts for treatment (n = 6–15 per group). Mice were treated with PF-309 or vehicle (0.5% methylcellulose) for 22–56 days (until control tumor volume reach ∼1500 mm^3) twice daily (BID) by oral gavage (PO). Monitoring of mice and measurements of tumors were conducted as described above. % Growth Inhibition= (average control volume−average treated volume)/average control volume×100% In addition to the cell line xenografts, we also treated 12 different patient derived tumor xenograft (PDTX) CRC models with PF-309 (Figure 6). We were unable to assess how ABCB1 gene expression correlated with efficacy in these models. The PDTX models are propagated in vivo, are not immortalized, and are not grown in in vitro culture. […] Tumor and plasma sample pairs were collected from animals at the end of study for eight tumor models (three cell line xenografts and five PDTX models) and concentrations of PF-309 were measured. […]

[4] = test system: DLD-1; test: Cell proliferation assay, DLD-1; format: cell-based, human
Method: as §1
In a subset of CRC cell lines, western blotting, and rhodamine efflux was used to verify the expression and function of P-gp. Consistent with the gene expression data, the sensitive cell lines, RKO, HCT116, and Colo205 show no P-gp expression and no functional P-gp, and the resistant lines, SW948, HCT15, and SW1116 express functional P-gp (Figures 3A,B). […]

[5] = test system: CUCRC047 CRC PDTX model; test: Patient derived tumor xenograft efficacy, CUCRC047; format: in vivo, mice; conditions: 25 mg/kg orally twice daily, 22–56 days, end of study tumor volumes
Method: as §2

[6] = test system: Colo201 cell line xenograft; test: CRC cell line xenograft efficacy, Colo201; format: in vivo, mice; conditions: 25 mg/kg orally twice daily, 14–28 days, end of study tumor volumes
Method: For cell line xenografts, CRC cells were harvested in exponential phase growth and resuspended in a 1:1 mixture of serum-free RPMI 1640 and Matrigel (BD Biosciences). Five to ten million cells per mouse were injected subcutaneously into the flank using a 23-gauge needle. Mice were monitored daily for signs of toxicity and were weighed twice weekly. Tumor size was evaluated twice per week by caliper measurements using the following formula: tumor volume = length × width^2 × 0.52. When tumors reached 200–300 mm^3 mice were randomized into two groups with at least 10 tumors per group. Mice were then treated for 14–28 days (until control tumor volume reach ∼1500 mm^3) with either vehicle control (0.5% methylcellulose), or PF-3758309 (25 mg/kg) twice daily by oral gavage.
Human tumor xenograft models were used to evaluate the efficacy of PF-309 in vivo. Eleven different CRC cell line tumor xenografts were treated with 25 mg/kg PF-309 twice daily by oral gavage for 14–28 days (until control tumor volumes reached ∼1500 mm^3). Tumor volumes were measured throughout the study and the % growth inhibition was calculated from the average end of study tumor volumes by:
% Growth Inhibition= (average control volume−average treated volume)/average control volume×100%

Question: How did the IC50 [1] turn out when `Cc1nc(Nc2n[nH]c3c2CN(C(=O)N[C@H](CN(C)C)c2ccccc2)C3(C)C)c2sccc2n1` [PF-309] was run?
Answer: 11.9 ± 4.4 nM

Question: What about the IC50 [2] of the same compound?
Answer: 18 nM

Question: What about the “% Growth inhibition” value [3] of the same compound?
Answer: 30%

Question: And the “shift in the IC50 by shRNA knockdown of P-gp” value ([4]; DLD-1 cells, P-gp knockdown vs control shRNA)?
Answer: four to six fold

Question: What about the IC50 ([4]; Homo sapiens, DLD-1, PF-309 alone, 72 h) of the same compound?
Answer: 278 nM

Question: And the “% Growth inhibition” value [5]?
Answer: −24%

Question: And the “% Growth inhibition” value [6]?
Answer: 45%
